Assay results: US6914045B2, “Glycopeptide antibiotics” (Wyeth Holdings Corporation, priority 2001, dated 2005)
In brackets after ≈: the same amount, converted by molar mass.

Key:
Assay in all cases: in vitro antibacterial evaluation, MIC by broth dilution
Assay type in all cases: cell-based
Escherichia coli = details: 18 hours at 35° C.
Streptococcus sp. = details: broth dilution, 18 hours at 35° C.
How it was run: (§1)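 Following National Committee for Clinical Laboratory Standards recommendations (M7-A2), susceptibility was measured by dilution in Muller-Hinton II […]. Bacteria were seeded at 5×10^5 CFU/mL against compound concentrations from 64 down to 0.06 μg/mL.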

Enterococcus sp. = details: broth dilution, 18 hours at 35° C.
How it was run: as §1

Staphylococcus sp. = details: broth dilution, 18 hours at 35° C.
How it was run: as §1

MIC Escherichia coli (ATCC 25922) (Escherichia coli): 16 µg/mL (≈ 11 µM)
MIC Escherichia coli (GC 4559) (Escherichia coli): 16 µg/mL (≈ 11 µM)
MIC Escherichia coli (GC 4560) (Escherichia coli): 2 µg/mL (≈ 1.37 µM)
MIC Streptococcus agalactiae (GC 4564) (Streptococcus sp.): 0.5 µg/mL (≈ 0.343 µM)
MIC Streptococcus pneumoniae (ATCC 6301) (Streptococcus sp.): 0.25 µg/mL (≈ 0.171 µM)
MIC Streptococcus pneumoniae (GC 1894) (Streptococcus sp.): <0.12 µg/mL
MIC Streptococcus pneumoniae (GC 4565) (Streptococcus sp.): 0.25 µg/mL (≈ 0.171 µM)
MIC Streptococcus pyogenes (GC 4563) (Streptococcus sp.): 0.5 µg/mL (≈ 0.343 µM)
MIC Streptococcus pneumoniae (ATCC 6301) (Streptococcus sp.; inoculum 5×10^5 CFU/mL, strain ATCC 6301): 0.25 µg/mL (≈ 0.171 µM)
MIC Streptococcus pneumoniae (GC 1894) (Streptococcus sp.; inoculum 5×10^5 CFU/mL, strain GC 1894): <0.12 µg/mL
MIC Streptococcus pyogenes (GC 4563) (Streptococcus sp.; inoculum 5×10^5 CFU/mL, strain GC 4563): 0.5 µg/mL (≈ 0.343 µM)
MIC Streptococcus agalactiae (GC 4564) (Streptococcus sp.; inoculum 5×10^5 CFU/mL, strain GC 4564): 0.5 µg/mL (≈ 0.343 µM)
MIC Streptococcus pneumoniae (GC 4565) (Streptococcus sp.; inoculum 5×10^5 CFU/mL, strain GC 4565): 0.25 µg/mL (≈ 0.171 µM)
MIC Enterococcus avium (GC 4558) (Enterococcus sp.): 2 µg/mL (≈ 1.37 µM)
MIC Enterococcus faecalis (ATCC 29212) (Enterococcus sp.): 4 µg/mL (≈ 2.74 µM)
MIC Enterococcus faecalis (GC 2242) (Enterococcus sp.): 4 µg/mL (≈ 2.74 µM)
MIC Enterococcus faecalis (GC 2691) (Enterococcus sp.): 8 µg/mL (≈ 5.48 µM)
MIC Enterococcus faecalis (GC 3059) (Enterococcus sp.): 4 µg/mL (≈ 2.74 µM)
MIC Enterococcus faecalis (GC 4552) (Enterococcus sp.): 4 µg/mL (≈ 2.74 µM)
MIC Enterococcus faecalis (GC 4553) (Enterococcus sp.): 2 µg/mL (≈ 1.37 µM)
MIC Enterococcus faecalis (GC 4554) (Enterococcus sp.): 4 µg/mL (≈ 2.74 µM)
MIC Enterococcus faecalis (GC 6189) (Enterococcus sp.): 4 µg/mL (≈ 2.74 µM)
MIC Enterococcus faecium (GC 2243) (Enterococcus sp.): 4 µg/mL (≈ 2.74 µM)
MIC Enterococcus faecium (GC 4556) (Enterococcus sp.): 4 µg/mL (≈ 2.74 µM)
MIC Enterococcus faecium (GC 4557) (Enterococcus sp.): 2 µg/mL (≈ 1.37 µM)
MIC Enterococcus faecalis (ATCC 29212) (Enterococcus sp.; strain ATCC 29212): 4 µg/mL (≈ 2.74 µM)
MIC Enterococcus faecium (GC 2243) (Enterococcus sp.; strain GC 2243): 4 µg/mL (≈ 2.74 µM)
MIC Enterococcus faecalis (GC 4552) (Enterococcus sp.; strain GC 4552): 4 µg/mL (≈ 2.74 µM)
MIC Enterococcus faecalis (GC 4553) (Enterococcus sp.; strain GC 4553): 2 µg/mL (≈ 1.37 µM)
MIC Enterococcus faecalis (GC 4554) (Enterococcus sp.; strain GC 4554): 4 µg/mL (≈ 2.74 µM)
MIC Enterococcus faecium (GC 4556) (Enterococcus sp.; strain GC 4556): 4 µg/mL (≈ 2.74 µM)
MIC Enterococcus faecium (GC 4557) (Enterococcus sp.; strain GC 4557): 2 µg/mL (≈ 1.37 µM)
MIC Enterococcus avium (GC 4558) (Enterococcus sp.; strain GC 4558): 2 µg/mL (≈ 1.37 µM)
MIC Enterococcus faecalis (GC 6189) (Enterococcus sp.; strain GC 6189): 4 µg/mL (≈ 2.74 µM)
MIC Enterococcus faecalis (GC 2242) (Enterococcus sp.; inoculum 5×10^5 CFU/mL, strain GC 2242): 4 µg/mL (≈ 2.74 µM)
MIC Enterococcus faecalis (GC 2691) (Enterococcus sp.; inoculum 5×10^5 CFU/mL, strain GC 2691): 8 µg/mL (≈ 5.48 µM)
MIC Enterococcus faecalis (GC 3059) (Enterococcus sp.; inoculum 5×10^5 CFU/mL, strain GC 3059): 4 µg/mL (≈ 2.74 µM)
MIC Coagulase Negative Staphylococcus (GC 4547) (Staphylococcus sp.): 1 µg/mL (≈ 0.685 µM)
MIC Coagulase Negative Staphylococcus (GC 4548) (Staphylococcus sp.): 1 µg/mL (≈ 0.685 µM)
MIC Coagulase Negative Staphylococcus (GC 4549) (Staphylococcus sp.): 1 µg/mL (≈ 0.685 µM)
MIC Coagulase Negative Staphylococcus (GC 4551) (Staphylococcus sp.): 2 µg/mL (≈ 1.37 µM)
MIC Coagulase Negative Staphylococcus (GC 6257) (Staphylococcus sp.): 2 µg/mL (≈ 1.37 µM)
MIC Staphylococcus aureus (ATCC 29213) (Staphylococcus sp.): 2 µg/mL (≈ 1.37 µM)
MIC Staphylococcus aureus (GC 1131) (Staphylococcus sp.): 4 µg/mL (≈ 2.74 µM)
MIC Staphylococcus aureus (GC 3051) (Staphylococcus sp.): 1 µg/mL (≈ 0.685 µM)
MIC Staphylococcus aureus (GC 3053) (Staphylococcus sp.): 2 µg/mL (≈ 1.37 µM)
MIC Staphylococcus aureus (GC 4541) (Staphylococcus sp.): 1 µg/mL (≈ 0.685 µM)
MIC Staphylococcus aureus (GC 4542) (Staphylococcus sp.): 1 µg/mL (≈ 0.685 µM)
MIC Staphylococcus aureus (GC 4544) (Staphylococcus sp.): 2 µg/mL (≈ 1.37 µM)
MIC Staphylococcus aureus (GC 4545) (Staphylococcus sp.): 2 µg/mL (≈ 1.37 µM)
MIC Staphylococcus aureus-SMITH (GC 4543) (Staphylococcus sp.): 1 µg/mL (≈ 0.685 µM)
MIC Staphylococcus aureus (ATCC 29213) (Staphylococcus sp.; strain ATCC 29213): 2 µg/mL (≈ 1.37 µM)
MIC Staphylococcus aureus (GC 1131) (Staphylococcus sp.; strain GC 1131): 4 µg/mL (≈ 2.74 µM)
MIC Staphylococcus aureus (GC 3051) (Staphylococcus sp.; strain GC 3051): 1 µg/mL (≈ 0.685 µM)
MIC Staphylococcus aureus (GC 3053) (Staphylococcus sp.; strain GC 3053): 2 µg/mL (≈ 1.37 µM)
MIC Staphylococcus aureus (GC 4541) (Staphylococcus sp.; strain GC 4541): 1 µg/mL (≈ 0.685 µM)
MIC Staphylococcus aureus (GC 4542) (Staphylococcus sp.; strain GC 4542): 1 µg/mL (≈ 0.685 µM)
MIC Staphylococcus aureus-SMITH (GC 4543) (Staphylococcus sp.; strain GC 4543): 1 µg/mL (≈ 0.685 µM)
MIC Staphylococcus aureus (GC 4544) (Staphylococcus sp.; strain GC 4544): 2 µg/mL (≈ 1.37 µM)
MIC Staphylococcus aureus (GC 4545) (Staphylococcus sp.; strain GC 4545): 2 µg/mL (≈ 1.37 µM)
MIC Coagulase Negative Staphylococcus (GC 4547) (Staphylococcus sp.; strain GC 4547): 1 µg/mL (≈ 0.685 µM)
MIC Coagulase Negative Staphylococcus (GC 4548) (Staphylococcus sp.; strain GC 4548): 1 µg/mL (≈ 0.685 µM)
MIC Coagulase Negative Staphylococcus (GC 4549) (Staphylococcus sp.; strain GC 4549): 1 µg/mL (≈ 0.685 µM)
MIC Coagulase Negative Staphylococcus (GC 4551) (Staphylococcus sp.; strain GC 4551): 2 µg/mL (≈ 1.37 µM)
MIC Coagulase Negative Staphylococcus (GC 6257) (Staphylococcus sp.; strain GC 6257): 2 µg/mL (≈ 1.37 µM)
SMILES: CC(c1ccccc1)C1NC(=O)CNC(=O)C(CO)NC(=O)C(CC2CNC(=N)N2C2OC(CO)C(O)C(O)C2O)NC(=O)C(CC2CNC(=N)N2)NC(=O)C(Cc2ccc(OC3OC(CO)C(OC4OC(CO)C(OCc5ccc(OCc6ccccc6)cc5)C(O)C4O)C(O)C3O)cc2)NC1=O (stereo not shown) [Example 246a]
MIC Staphylococcus haemolyticus (GC 4546) (Staphylococcus sp.): 1 µg/mL (≈ 0.685 µM)
MIC Staphylococcus haemolyticus (GC 4546) (Staphylococcus sp.; strain GC 4546): 1 µg/mL (≈ 0.685 µM)
